In patent publication US8895585B2, “Nicotinamide derivative or salt thereof” (FUJIFILM Corporation, priority 2010, dated 2014):

Tests used:
[1] = biological target: T1, glutathione S-transferase (GST)-fused full-length human Syk protein (Homo sapiens, UniProt P43405); experiment: Syk enzyme assay; assay type: biochemical; settings: Syk enzyme assay, Test Example 1; read-out: IC50 of Syk-inhibitory activity
T1 construct: (GST)-fused full-length human Syk protein; GST (glutathione S-transferase); purchased Carna Biosciences
Procedure, shortened: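 GST-tagged full-length human Syk (baculovirus) preincubated with compound 15 min at room temperature (pH 7.0, 10 mM MgCl2), then reacted 40 min with 0.4 μM biotinylated peptide substrate and 27 μM ATP (final). Phosphorylation read by HTRF (615/665 nm) after EDTA stop; IC50 reported.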

THP-1 cells = experiment: TNFα generation assay; assay type: cell-based, human; settings: Homo sapiens, THP-1, THP-1 cells; Table 22; read-out: IC50 in TNFα generation assay
Procedure, shortened: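 Secreted TNFα in supernatant quantified by ELISA or AlphaLISA after 7 h culture on human IgG-coated wells (10 μg/ml coating). Cells were IFN-γ-differentiated THP-1 (10 ng/ml, 2 days), exposed to compound for 30 min at room temperature before plating.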

Row | Structure (SMILES) | IC50 [1] [nM] | IC50 (THP-1 cells) [nM]
1 | CCOCCOCCn1ncc2cc(Nc3nc(N[C@@H]4CCCC[C@@H]4N)c(F)cc3C(N)=O)ccc21 (relative stereo) [Example 004-092, 6-(cis-2-aminocyclohexylamino)-2-((1-(2-(2-ethoxyethoxy)ethyl)-1H-indazol-5-yl)amino)-5-fluoronicotinamide] | < 10 | 65 to 130
2 | NC(=O)c1cc(F)c(N[C@@H]2CCCC[C@@H]2N)nc1Nc1ccc2nn(CC3CC3)cc2c1 (relative stereo) [Example 004-093, 6-(cis-2-aminocyclohexylamino)-2-((2-(cyclopropylmethyl)-2H-indazol-5-yl)amino)-5-fluoronicotinamide] | < 10 | 130 to 200
3 | COCCn1cc2cc(Nc3nc(N[C@@H]4CCCC[C@@H]4N)c(F)cc3C(N)=O)ccc2n1 (relative stereo) [Example 004-094, 6-(cis-2-aminocyclohexylamino)-5-fluoro-2-((2-(2-methoxyethyl)-2H-indazol-5-yl)amino)-nicotinamide] | < 10 | 130 to 200
4 | CCOCCOCCn1cc2cc(Nc3nc(N[C@@H]4CCCC[C@@H]4N)c(F)cc3C(N)=O)ccc2n1 (relative stereo) [Example 004-095, 6-(cis-2-aminocyclohexylamino)-2-((2-(2-(2-ethoxyethoxy)ethyl)-2H-indazol-5-yl)amino)-5-fluoronicotinamide] | < 10 | 130 to 200
5 | NC(=O)c1cc(F)c(N[C@@H]2CCCC[C@@H]2N)nc1Nc1cccnc1 (relative stereo) [Example 004-096, 6-(cis-2-aminocyclohexylamino)-5-fluoro-2-((pyridin-3-yl)amino)nicotinamide] | 10 to 50 | 65 to 130
6 | NC(=O)c1cc(F)c(N[C@@H]2CCCC[C@@H]2N)nc1Nc1cncc(Cl)c1 (relative stereo) [Example 004-097, 6-(cis-2-aminocyclohexylamino)-2-((5-chloropyridin-3-yl)amino)-5-fluoronicotinamide] | < 10 | 65 to 130
7 | NC(=O)c1cc(F)c(N[C@@H]2CCCC[C@@H]2N)nc1Nc1cncc(F)c1 (relative stereo) [Example 004-105, 6-(cis-2-aminocyclohexylamino)-5-fluoro-2-((5-fluoropyridin-3-yl)amino)nicotinamide] | 10 to 50 | 130 to 200
8 | COCCOc1cccc(-c2cncc(Nc3nc(N[C@@H]4CCCC[C@@H]4N)c(F)cc3C(N)=O)c2)c1 (relative stereo) [Example 004-109, 6-(cis-2-aminocyclohexylamino)-5-fluoro-2-((5-(3-(2-methoxyethoxy)phenyl)pyridin-3-yl)-amino)nicotinamide] | < 10 | 130 to 200
9 | COc1cccc(-c2cncc(Nc3nc(N[C@@H]4CCCC[C@@H]4N)c(F)cc3C(N)=O)c2)c1 (relative stereo) [Example 004-113, 6-(cis-2-aminocyclohexylamino)-5-fluoro-2-((5-(3-methoxyphenyl)pyridin-3-yl)amino)-nicotinamide] | < 10 | 130 to 200
10 | COc1ccc(-c2cncc(Nc3nc(N[C@@H]4CCCC[C@@H]4N)c(F)cc3C(N)=O)c2)cc1 (relative stereo) [Example 004-114, 6-(cis-2-aminocyclohexylamino)-5-fluoro-2-((5-(4-methoxyphenyl)pyridin-3-yl)amino)-nicotinamide] | < 10 | 65 to 130
11 | Cn1c(F)cc2cc(Nc3nc(N[C@@H]4CCCC[C@@H]4N)c(F)cc3C(N)=O)ccc21 (relative stereo) [Example 004-117, 6-(cis-2-aminocyclohexylamino)-5-fluoro-2-((2-fluoro-1-methyl-1H-indol-5-yl)amino)-nicotinamide] | < 10 | 130 to 200
12 | NC(=O)c1cc(F)c(N[C@@H]2CCCC[C@@H]2N)nc1Nc1cncc(-c2cnco2)c1 (relative stereo) [Example 004-118, 6-(cis-2-aminocyclohexylamino)-5-fluoro-2-((5-(oxazol-5-yl)pyridin-3-yl)amino)-nicotinamide] | < 10 | 65 to 130
13 | NC(=O)c1cc(F)c(N[C@@H]2CCCC[C@@H]2N)nc1Nc1cnc2cc(N3CCOCC3)ccc2c1 (relative stereo) [Example 004-123, 6-(cis-2-aminocyclohexylamino)-5-fluoro-2-((7-morpholinoquinolin-3-yl)amino)-nicotinamide] | < 10 | 130 to 200
14 | NC(=O)c1cc(F)c(N[C@@H]2CCCC[C@@H]2N)nc1Nc1cnc2cc(N)ccc2c1 (relative stereo) [Example 004-125, 6-(cis-2-aminocyclohexylamino)-2-((7-aminoquinolin-3-yl)amino)-5-fluoronicotinamide] | < 10 | 65 to 130
15 | COCCOc1ccc2cc(Nc3nc(N[C@@H]4CCCC[C@@H]4N)c(F)cc3C(N)=O)cnc2c1 (relative stereo) [Example 004-127, 6-(cis-2-aminocyclohexylamino)-5-fluoro-2-((7-(2-methoxyethoxy)quinolin-3-yl)amino)-nicotinamide] | < 10 | 130 to 200
16 | COc1ccc2cc(Nc3nc(N[C@@H]4CCCC[C@@H]4N)c(F)cc3C(N)=O)cnc2c1 (relative stereo) [Example 004-128, 6-(cis-2-aminocyclohexylamino)-5-fluoro-2-((7-methoxyquinolin-3-yl)amino)nicotinamide] | < 10 | 65 to 130
17 | NC(=O)c1cc(F)c(N[C@@H]2CCCC[C@@H]2N)nc1Nc1ccccc1 (relative stereo) [Example 004-129, 6-(cis-2-aminocyclohexylamino)-5-fluoro-2-(phenylamino)nicotinamide] | < 10 | 65 to 130
18 | CC(=O)c1cncc(Nc2nc(N[C@@H]3CCCC[C@@H]3N)c(F)cc2C(N)=O)c1 (relative stereo) [Example 004-132, 2-((5-acetylpyridin-3-yl)amino)-6-(cis-2-aminocyclohexylamino)-5-fluoronicotinamide] | 10 to 50 | 65 to 130
19 | NC(=O)c1cc(F)c(N[C@@H]2CCCC[C@@H]2N)nc1Nc1cncc(-c2ccno2)c1 (relative stereo) [Example 004-141, 6-(cis-2-aminocyclohexylamino)-5-fluoro-2-((5-(isoxazol-5-yl)pyridin-3-yl)amino)-nicotinamide] | < 10 | 65 to 130
20 | NC(=O)c1cc(F)c(N[C@@H]2CCCC[C@@H]2N)nc1Nc1cncc(-c2ccccc2F)c1 (relative stereo) [Example 004-143, 6-(cis-2-aminocyclohexylamino)-5-fluoro-2-((5-(2-fluorophenyl)pyridin-3-yl)amino)-nicotinamide] | < 10 | 65 to 130

The next lines start with the values.

Row | IC50 [1] [nM] | IC50 (THP-1 cells) [nM] | Structure (SMILES)
21 | < 10 | 130 to 200 | COc1ccccc1-c1cncc(Nc2nc(N[C@@H]3CCCC[C@@H]3N)c(F)cc2C(N)=O)c1 (relative stereo) [Example 004-149, 6-(cis-2-aminocyclohexylamino)-5-fluoro-2-((5-(2-methoxyphenyl)pyridin-3-yl)amino)-nicotinamide]
22 | < 10 | 65 to 130 | NC(=O)c1cc(F)c(N[C@@H]2CCCC[C@@H]2N)nc1Nc1cccc2cnccc12 (relative stereo) [Example 004-159, 6-(cis-2-aminocyclohexylamino)-5-fluoro-2-((isoquinolin-5-yl)amino)nicotinamide]
23 | 10 to 50 | 130 to 200 | NC(=O)c1cc(F)c(N[C@@H]2CCCC[C@@H]2N)nc1Nc1cnc2c(c1)OCCO2 (relative stereo) [Example 004-161, 6-(cis-2-aminocyclohexylamino)-2-((2,3-dihydro-[1,4]dioxino[2,3-b]pyridin-7-yl)amino)-5-fluoronicotinamide]
24 | < 10 | 130 to 200 | NC(=O)c1cc(F)c(N[C@@H]2CCCC[C@@H]2N)nc1Nc1cnc2c(c1)CCC2 (relative stereo) [Example 004-162, 6-(cis-2-aminocyclohexylamino)-2-((6,7-dihydro-5H-cyclopenta[b]pyridin-3-yl)amino)-5-fluoronicotinamide]
25 | < 10 | < 65 | NC(=O)c1cc(F)c(N[C@@H]2CCCC[C@@H]2N)nc1Nc1ccc2cnccc2c1 (relative stereo) [Example 004-163, 6-(cis-2-aminocyclohexylamino)-5-fluoro-2-((isoquinolin-6-yl)amino)nicotinamide]
26 | < 10 | 130 to 200 | COc1nccc2cc(Nc3nc(N[C@@H]4CCCC[C@@H]4N)c(F)cc3C(N)=O)ccc12 (relative stereo) [Example 004-164, 6-(cis-2-aminocyclohexylamino)-5-fluoro-2-((1-methoxyisoquinolin-6-yl)amino)-nicotinamide]
27 | < 10 | 130 to 200 | COCCOc1nccc2cc(Nc3nc(N[C@@H]4CCCC[C@@H]4N)c(F)cc3C(N)=O)ccc12 (relative stereo) [Example 004-168, 6-(cis-2-aminocyclohexylamino)-5-fluoro-2-((1-(2-methoxyethoxy)isoquinolin-6-yl)amino)-nicotinamide]
28 | < 10 | 130 to 200 | NC(=O)c1cc(F)c(N[C@@H]2CCCC[C@@H]2N)nc1Nc1cncc(-c2ccc(F)cc2F)c1 (relative stereo) [Example 004-181, 6-(cis-2-aminocyclohexylamino)-2-((5-(2,4-difluorophenyl)pyridin-3-yl)amino)-5-fluoronicotinamide]
29 | 10 to 50 | 65 to 130 | COCc1cncc(Nc2nc(N[C@@H]3CCCC[C@@H]3N)c(F)cc2C(N)=O)c1 (relative stereo) [Example 004-188, 6-(cis-2-aminocyclohexylamino)-5-fluoro-2-((5-(methoxymethyl)pyridin-3-yl)amino)nicotinamide]
